Data: US6916845B2, “Method for prevention and treatment of male and female sexual dysfunction” (priority 1999, dated 2005)

Key:
[1] = test system: rabbit's CC smooth muscle; assay: Relaxation of PHE pre-contracted corpus cavernosum smooth muscle strips in organ chamber; format: cell-based; details: for effect of pre-treatment on the relaxation effects of icariin: pre-treatment before icariin
Experimental: Sixty adults male New Zealand white rabbits(Weight: 2.5-3.0 kg) were used. Rabbits were anesthesia with sodium pentobarbital(50 mg/kg), penis was removed and corpus cavernous tissue were carefully isolated and made into 2×2×6 mm muscle strips for isometric tension was measured in organ chamber in vitro study with polygraph(MP 100 WS:Biopac systems, USA). CC muscle strip was fixed in 10 ml organ chamber containing Tyrode solution and continuously supplied with mixed gas(95% O2 and 5% CO2) and keep temperature at 37° C. The initial resting tensions of muscle strips were set at 2 g and tissue was allowed to equilibrate for 1.5-3.0 hours. Sub-maximal contractile responses to phenylepherine(PHE 5×10^-6 M) were observed and optimal isometric tension was determined. To evaluate the relaxation effects of icariin (the other components magnoflorine, querectin, epimedin A, B and C as the controls) on CC muscle strips, investigated the relaxation effects of different dosage of icariin on muscle strips pre-contracted by PHE. And to investigate the pharmaceutical action mechanism, the effects of […] Nω-nitric-L-arginine(L-NNA), guanylate cyclase antagonist methylene blue and pyrogallol, soluble guanylate cyclase inhibitor 1H-[1,2,4]oxadiazolo[4,3,-a]quinoxalin-1-one (ODQ) on the relaxation effects of icariin on CC.

adult male rat = assay: Intracavernosal press (ICP) changes after intracavernosal administration and cavernous nerve electrical stimulation; format: in vivo; details: for Inhibiting Effect on Icariin induced Relaxation of CC. (ICP changes): 10 minutes after Icariin 100 μl 10^−4M
Experimental: Twenty-four male, adult Wistar rats(weight:300-350 g) were used. After anesthetization, the left carotid artery was cannulated to monitor mean arterial pressure (MAP). Bipolar electrodes were positioned on the cavernous nerve (CN); the right cavernous body was cannulated with 26 G needle connected with Biopack MP100 to monitor ICP changes. After intracavemosal administration of 100 μl different concentration Icariin or Reserpine (10^−8M to 10^−4M) respectively, the CN was electrically stimulated (ES) 10 minutes later and ICP and MAP were monitored. In order to investigate the possible mechanism of the effect of icariin on ICP changes, 100 μl different concentration guanylate cyclase inhibitor ODQ (10^−8M-10^−4M) were intracavemosal administrated 10 minutes after Icariin (100 μl 10^−4M) administration into CC, and then the ICP was measured during erection, which was, followed the ES.

[2] = test system: cGMP formation in rabbit corpus cavernosum; assay: cGMP formation in corpus cavernosum of penis stimulated with SNP, radioimmunoassay; format: cell-based; details: in the presence of SNP
patients = patients on antihypertensive agent; cited from earlier work
[3] = test system: PDE4 isolated from human liver tissue; assay: Inhibition of cAMP specific PDE4, two-step radioisotope procedure; format: biochemical
Experimental: PDE5 and PDE4 were isolated from human platelets and liver tissue using a Pharmacia FPLC system and Mono Q column. The cyclic nucleotide PDE5/PDE4 activities in FPLC fractions were determined using a modification of the two-step radioisotope procedure ([^3H]GMP/[^3H]AMP).

[4] = test system: cGMP formation in clitoris CC of female rabbits; assay: cGMP formation in CC of clitoris stimulated with SNP, radioimmunoassay; format: cell-based, rabbit

NC(=NCCC[C@H](N)C(=O)O)N[N+](=O)[O-] [L-NNA, Nω-nitric-L-arginine]
icariin induced relaxation of CC smooth muscle strips after pre-treatment with the named inhibitor ([1]; icariin 10^−4M): 15.68 ± 1.15%
icariin induced relaxation of CC smooth muscle strips after pre-treatment with the named inhibitor ([1]; icariin 10^−5M): 3.23 ± 0.89%
icariin induced relaxation of CC smooth muscle strips after pre-treatment with the named inhibitor ([1]; icariin 10^−6M): 0.82 ± 0.58%
effect of pre-treatment on the relaxation effects of icariin [1]: significantly inhibited

CN(C)c1ccc2nc3ccc(=[N+](C)C)cc-3sc2c1 [Methylene blue, methylene blue]
icariin induced relaxation of CC smooth muscle strips after pre-treatment with the named inhibitor ([1]; icariin 10^−4M): 13.45 ± 1.12%
icariin induced relaxation of CC smooth muscle strips after pre-treatment with the named inhibitor ([1]; icariin 10^−5M): 2.02 ± 0.45%
icariin induced relaxation of CC smooth muscle strips after pre-treatment with the named inhibitor ([1]; icariin 10^−6M): 0.52 ± 0.68%
effect of pre-treatment on the relaxation effects of icariin [1]: significantly inhibited

O=c1onc2cnc3ccccc3n12 [ODQ, 1H-[1,2,4]oxadiazolo[4,3,-a]quinoxalin-1-one]
icariin induced relaxation of CC smooth muscle strips after pre-treatment with the named inhibitor ([1]; icariin 10^−4M): 10.45 ± 1.08%
icariin induced relaxation of CC smooth muscle strips after pre-treatment with the named inhibitor ([1]; icariin 10^−5M): 1.85 ± 0.35%
icariin induced relaxation of CC smooth muscle strips after pre-treatment with the named inhibitor ([1]; icariin 10^−6M): 0.42 ± 0.48%
effect of pre-treatment on the relaxation effects of icariin [1]: significantly inhibited
Inhibiting Effect on Icariin induced Relaxation of CC. (ICP changes) (adult male rat; ODQ 10^−4M): 80.24 ± 8.05%
Inhibiting Effect on Icariin induced Relaxation of CC. (ICP changes) (adult male rat; ODQ 10^−5M): 58.45 ± 6.00%
Inhibiting Effect on Icariin induced Relaxation of CC. (ICP changes) (adult male rat; ODQ 10^−6M): 23.09 ± 4.29%
Inhibiting Effect on Icariin induced Relaxation of CC. (ICP changes) (adult male rat; ODQ 10^−7M): 17.16 ± 1.77%

COc1ccc(Cc2nccc3cc(OC)c(OC)cc23)cc1OC [Papaverine, papaverine]
cGMP concentration changes ([2]; 10^−3M): 11.43 ± 65 fmol/mg/min
cGMP concentration changes ([2]; 10^−4M): 9.82 ± 2.16 fmol/mg/min
cGMP concentration changes ([2]; 10^−5M): 8.92 ± 1.87 fmol/mg/min
cGMP concentration changes ([2]; 10^−6M): 8.66 ± 2.07 fmol/mg/min

Oc1cccc(O)c1O [Pyrogallol, pyrogallol]
icariin induced relaxation of CC smooth muscle strips after pre-treatment with the named inhibitor ([1]; icariin 10^−4M): 15.68 ± 1.15%
icariin induced relaxation of CC smooth muscle strips after pre-treatment with the named inhibitor ([1]; icariin 10^−5M): 3.45 ± 0.73%
icariin induced relaxation of CC smooth muscle strips after pre-treatment with the named inhibitor ([1]; icariin 10^−6M): 0.85 ± 0.45%
effect of pre-treatment on the relaxation effects of icariin [1]: significantly inhibited

COC(=O)[C@H]1[C@H]2C[C@@H]3c4[nH]c5cc(OC)ccc5c4CCN3C[C@H]2C[C@@H](OC(=O)c2cc(OC)c(OC)c(OC)c2)[C@@H]1OC [Reserpine, reserpine]
Inhibiting effects on ICP (adult male rat; Reserpine 10^−4M intracavernosal): 59.63%
Inhibiting effects on ICP (adult male rat; Reserpine 10^−5M intracavernosal): 33.34%
Inhibiting effects on ICP (adult male rat; Reserpine 10^−6M intracavernosal): 17.39%
Inhibiting effects on ICP (adult male rat; Reserpine 10^−7M intracavernosal): 4.81%
sexual dysfunction associated with the agent, % of patients (patients): 30-40%

CCCc1nn(C)c2c(=O)[nH]c(-c3cc(S(=O)(=O)N4CCN(C)CC4)ccc3OCC)nc12 [Sildenafil]
cGMP concentration changes ([2]; 10^−3M): 12.35 ± 2.56 fmol/mg/min
cGMP concentration changes ([2]; 10^−4M): 11.98 ± 2.39 fmol/mg/min
cGMP concentration changes ([2]; 10^−5M): 12.69 ± 2.24 fmol/mg/min
cGMP concentration changes ([2]; 10^−6M): 10.65 ± 2.28 fmol/mg/min
EC50 ([2]; Oryctolagus cuniculus, read-out: EC50 (cGMP formation, CC of penis)): 310 nM
IC50 [3]: 14600 nM
cGMP concentration in clitoris CC [4]: significantly increased
EC50 ([4]; Oryctolagus cuniculus, stimulated with SNP, read-out: EC50 (cGMP formation, CC of clitoris)): 310 nM

C[C@](N)(Cc1ccc(O)c(O)c1)C(=O)O [alpha-methyldopa]
sexual dysfunction associated with the agent, % of patients (patients): 20-30%

NS(=O)(=O)c1cc2c(cc1C(F)(F)F)NC(Cc1ccccc1)NS2(=O)=O (stereo not drawn) [bendrofluazide]
sexual dysfunction associated with the agent, % of patients (patients): 36%

Clc1cccc(Cl)c1NC1=NCCN1 [clodidine]
sexual dysfunction associated with the agent, % of patients (patients): 41%

COc1ccc(-c2oc3c(CC=C(C)C)c(OC4OC(CO)C(O)C(O)C4O)cc(O)c3c(=O)c2OC2OC(C)C(O)C(O)C2OC2OC(CO)C(O)C(O)C2O)cc1 (stereo not drawn) [epimedin A]
relaxation effects on CC [1]: no significant relaxation effects

COc1ccc(-c2oc3c(CC=C(C)C)c(O[C@@H]4O[C@H](CO)[C@@H](O)[C@H](O)[C@H]4O)cc(O)c3c(=O)c2O[C@@H]2O[C@@H](C)[C@H](O)[C@@H](O)[C@H]2O[C@@H]2OC[C@@H](O)[C@H](O)[C@H]2O)cc1 [epimedin B]
relaxation effects on CC [1]: no significant relaxation effects

COc1ccc(-c2oc3c(CC=C(C)C)c(O[C@@H]4O[C@H](CO)[C@@H](O)[C@H](O)[C@H]4O)cc(O)c3c(=O)c2O[C@@H]2O[C@@H](C)[C@H](O)[C@@H](O)[C@H]2O[C@@H]2O[C@@H](C)[C@H](O)[C@@H](O)[C@H]2O)cc1 [epimedin C]
relaxation effects on CC [1]: no significant relaxation effects

COc1ccc2c(c1O)-c1c(O)c(OC)cc3c1[C@H](C2)[N+](C)(C)CC3 [magnoflorine]
relaxation effects on CC [1]: no significant relaxation effects

O=c1c(O)c(-c2ccc(O)c(O)c2)oc2cc(O)cc(O)c12 [querectin]
relaxation effects on CC [1]: no significant relaxation effects
